This passage reports Activity results from ChEMBL document CHEMBL3608215, “Natural β-Dihydroagarofuran-Type Sesquiterpenoids as Cognition-Enhancing and Neuroprotective Agents from Medicinal Plants of the Genus Celastrus” (2015).

Active and inactive are the calls of the source. The rule behind the calls is not given here.

The subject of assay [1] is Mus musculus. The assay is described as follows: Cognition-enhancing effect in ICR mouse assessed as reduction of scopolamine-induced escape latency and number of errors at 0.1 mg/kg, ig treated 1 hr before scopolamine challenge by passageway water maze test. Type of assay: functional, organism-based.
Assay [2] relates to Mus musculus. The assay is described as follows: Cognition-enhancing effect in ICR mouse assessed as reduction of scopolamine-induced escape latency and number of errors at 20 mg/kg, ig treated 1 hr before scopolamine challenge by passageway water maze test. The format is functional, organism-based.
The subject of a further assay is SH-SY5Y. The assay is described as follows: Neuroprotective activity in human SH-SY5Y cells assessed as production against amyloid beta (25 to 35)-induced cell death by measuring cell viability at 1 uM after 24 hrs by MTT assay. Type of assay: functional.
The subject of assay [3] is Mus musculus. The assay is described as follows: Cognition-enhancing effect in ig dosed ICR mouse assessed as reduction of scopolamine-induced escape latency and number of errors treated 1 hr before scopolamine challenge by passageway water maze test. The format is functional, organism-based.
The test system of assay [4] is Mus musculus. The assay is described as follows: Cognition-enhancing effect in ICR mouse assessed as reduction of scopolamine-induced escape latency and number of errors at 10 to 40 mg/kg, ig treated 1 hr before scopolamine challenge by passageway water maze test. The format is functional, organism-based.

As for `CC(=O)O[C@H]1C[C@@H]2[C@@H](OC(=O)c3ccccc3)[C@]3(OC2(C)C)[C@H](C)CC[C@H](OC(=O)c2ccccc2)[C@@]13C`, the result in the assay with Mus musculus [1] and in the assay on Mus musculus [2] was Active.
On to `CC(=O)OC[C@@]12[C@@H](OC(C)=O)CC[C@@H](C)[C@]13OC(C)(C)[C@H](C[C@@H]2OC(=O)c1ccccc1)[C@H]3OC(C)=O`, for which the outcome with Mus musculus [1] and in the assay with Mus musculus [2] was Active.
In the case of `C/C=C1\[C@H]2C=C(C)C[C@]1(N)c1ccc(=O)[nH]c1C2`, in the assay with Mus musculus [1], the outcome was Active.
Take `CC(=O)O[C@H]1[C@@H](OC(=O)/C=C/c2ccccc2)C[C@@H](C)[C@@]23C[C@@H](C[C@H](OC(=O)/C=C/c4ccccc4)[C@]12C)C(C)(C)O3`: the Activity in the assay on SH-SY5Y is 76.3%.
The same measure, in the same setting: the result for `CC(=O)O[C@@H]1[C@H]2C[C@H](OC(=O)/C=C/c3ccccc3)[C@]3(C)[C@@H](OC(C)=O)[C@@H](OC(=O)c4ccccc4)C[C@@H](C)[C@@]13OC2(C)C` reads 79.6%.
As to `CC(=O)O[C@H]1CC[C@@H](C)[C@@]23C[C@@H](C[C@H](OC(=O)/C=C/c4ccccc4)[C@]12C)C(C)(C)O3`, the Activity entry in the assay with Mus musculus [3] was “Dose-dependent effect”. Also, the outcome in the assay with Mus musculus [1] was Active.
For the compound `CC(=O)O[C@H]1C[C@@H]2[C@@H](OC(C)=O)[C@]3(OC2(C)C)[C@H](C)CC[C@H](OC(=O)c2ccccc2)[C@@]13C`, the result in the assay on Mus musculus [1] and in the assay on Mus musculus [2] was Active.
Consider `CC(=O)O[C@@H]1[C@@H]2[C@@H](OC(C)=O)[C@]3(OC2(C)C)[C@H](C)CC[C@H](OC(C)=O)[C@@]3(C)[C@H]1OC(=O)c1ccccc1`, for which the outcome in the assay with Mus musculus [4] was inactive.
